ChEMBL document CHEMBL2029201, “Synthesis of chalcone derivatives as potential anti-diabetic agents” (2012)

test system: 3T3-L1; assay: Antidiabetic activity in mouse 3T3L1 cells assessed as […] from cell culture medium using 450 mg/dL D-glucose at 30 ug/mL after 24 hrs (reference value: 310 +/- 4 mg/dl); assay type: functional

SMILES	Activity [mg/dL]
O=C(/C=C/c1ccccc1)c1cc(Cl)ccc1O	236
COc1ccc(/C=C/C(=O)c2ccccc2Cl)cc1	234
COc1ccc(/C=C/C(=O)c2cccc(Cl)c2)cc1	287
COc1cccc(/C=C/C(=O)c2cccc(Cl)c2)c1	255
COc1ccc(/C=C/C(=O)c2ccccc2Br)cc1	230
O=C(/C=C/c1ccccc1)c1ccccc1I	223
COc1ccc(/C=C/C(=O)c2ccccc2I)cc1	210
COc1cccc(/C=C/C(=O)c2ccccc2I)c1	210
O=C(/C=C/c1cccc(OCc2ccccc2)c1)c1cccc(I)c1	238
